Data as given in US9193731B2, “Antimicrobial compounds and methods of making and using the same” (Melinta Therapeutics, Inc., priority 2009, dated 2015).

Tested on: Escherichia coli strain ATCC25922
Assay: standard microdilution assay to determine minimum inhibitory concentrations (MICs)
Format: cell-based
Details: for E. coli ATCC25922 MIC: Escherichia coli strain ATCC25922, microdilution; for MIC: Escherichia coli, ATCC25922, Escherichia coli strain ATCC25922, microdilution, read-out: E. coli ATCC25922 MIC
Procedure, shortened: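 Broth microdilution MIC against E. coli ATCC25922, following CLSI protocols, typically in a 100 microliter final volume. Results reported as +/− relative to a 16 micrograms/ml cutoff.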

SMILES: N=C(N)NCCCNCc1ccc(-n2cc3cc(-c4ccc(S(=O)(=O)N(CCC(=O)Nc5ccc([N+](=O)[O-])cc5)C5CCNCC5)cc4)[nH]c3nc2=O)cc1 [Compound 854]
- E. coli ATCC25922 MIC: + (a “+” indicates that the compound has an MIC value of 16 micrograms/ml or less)

SMILES: N=C(N)NCCCNCc1ccc(-n2cc3cc(-c4ccc(S(=O)(=O)N(CCCN5CCS(=O)(=O)CC5)C5CCNCC5)cc4)[nH]c3nc2=O)cc1 [Compound 855]
- E. coli ATCC25922 MIC: + (a “+” indicates that the compound has an MIC value of 16 micrograms/ml or less)

SMILES: N=C(N)NCCCNCc1ccc(-n2cc3cc(-c4ccc(S(=O)(=O)N(CCCn5cnnc5)C5CCNCC5)cc4)[nH]c3nc2=O)cc1 [Compound 856]
- E. coli ATCC25922 MIC: + (a “+” indicates that the compound has an MIC value of 16 micrograms/ml or less)

SMILES: N=C(N)NCCCNCc1ccc(-n2cc3cc(-c4ccc(S(=O)(=O)N(CC5CC5(F)F)C5CCNCC5)cc4)[nH]c3nc2=O)cc1 (centres unmarked) [Compound 857]
- E. coli ATCC25922 MIC: + (a “+” indicates that the compound has an MIC value of 16 micrograms/ml or less)

SMILES: NCCCNCc1ccc(-n2cc3cc(-c4cc(C(=O)N5CCN(CCO)CC5)cc(N5CCNCC5)c4)[nH]c3nc2=O)cc1 [Compound 860]
- E. coli ATCC25922 MIC: − (a “−” indicates that the compound has an MIC value greater than 16 micrograms/ml)

SMILES: N=C(N)NCCCNCc1ccc(-n2cc3cc(-c4cc(C(=O)N5CCN(CCO)CC5)cc(N5CCNCC5)c4)[nH]c3nc2=O)cc1 [Compound 861]
- E. coli ATCC25922 MIC: − (a “−” indicates that the compound has an MIC value greater than 16 micrograms/ml)

SMILES: N=C(N)NCCCNCc1ccc(-n2cc3cc(-c4ccc(S(=O)(=O)N(CCCc5cnc6ncnn6c5)C5CCNCC5)cc4)[nH]c3nc2=O)cc1 [Compound 862]
- E. coli ATCC25922 MIC: + (a “+” indicates that the compound has an MIC value of 16 micrograms/ml or less)

SMILES: N=C(N)NCCCNCc1ccc(-n2cc3cc(-c4ccc(S(=O)(=O)NC5CCOCC5)cc4)[nH]c3nc2=O)cc1 [Compound 864]
- E. coli ATCC25922 MIC: − (a “−” indicates that the compound has an MIC value greater than 16 micrograms/ml)

SMILES: N=C(N)NCCCNCc1ccc(-n2cc3cc(-c4ccc(S(=O)(=O)N(CC5CC5c5ccncc5)C5CCNCC5)cc4)[nH]c3nc2=O)cc1 (centres unmarked) [Compound 866]
- E. coli ATCC25922 MIC: + (a “+” indicates that the compound has an MIC value of 16 micrograms/ml or less)

SMILES: NCCCNCc1ccc(-n2cc3cc(-c4ccc(C[C@H](N)CO)cc4)[nH]c3nc2=O)cc1 [Compound 867]
- MIC: < 16 µg/mL

SMILES: N=C(N)NCCCNCc1ccc(-n2cc3cc(-c4ccc(S(=O)(=O)NC5CCNCC5)cc4)[nH]c3nc2=O)cc1 [Compound 871]
- E. coli ATCC25922 MIC: + (a “+” indicates that the compound has an MIC value of 16 micrograms/ml or less)

SMILES: CC1CN(S(=O)(=O)c2ccc(-c3cc4cn(-c5ccc(CNCCCNC(=N)N)cc5)c(=O)nc4[nH]3)cc2)CC(C)N1 (centres unmarked) [Compound 872]
- E. coli ATCC25922 MIC: + (a “+” indicates that the compound has an MIC value of 16 micrograms/ml or less)

SMILES: NCCCNCCCCCn1cc2cc(-c3ccc(S(=O)(=O)NC4CCNCC4)cc3)[nH]c2nc1=O [Compound 873]
- E. coli ATCC25922 MIC: + (a “+” indicates that the compound has an MIC value of 16 micrograms/ml or less)

SMILES: NCCCNCc1ccc(-n2cc3cc(-c4cc(C(=O)N5CCS(=O)(=O)CC5)cc(N5CCNCC5)c4)[nH]c3nc2=O)cc1 [Compound 874]
- E. coli ATCC25922 MIC: − (a “−” indicates that the compound has an MIC value greater than 16 micrograms/ml)

SMILES: N=C(N)NCCCNCc1ccc(-n2cc3cc(-c4cc(C(=O)N5CCS(=O)(=O)CC5)cc(N5CCNCC5)c4)[nH]c3nc2=O)cc1 [Compound 875]
- E. coli ATCC25922 MIC: + (a “+” indicates that the compound has an MIC value of 16 micrograms/ml or less)

SMILES: N=C(N)NCCCNCc1ccc(-n2cc3cc(-c4ccc(S(=O)(=O)N(Cc5ccccc5SC(F)(F)F)C5CCOCC5)cc4)[nH]c3nc2=O)cc1 [Compound 876]
- E. coli ATCC25922 MIC: − (a “−” indicates that the compound has an MIC value greater than 16 micrograms/ml)

SMILES: N=C(N)NCCCNCc1ccc(-n2cc3cc(-c4ccc(S(=O)(=O)N(CC5COc6ccccc6O5)C5CCOCC5)cc4)[nH]c3nc2=O)cc1 (centres unmarked) [Compound 877]
- E. coli ATCC25922 MIC: − (a “−” indicates that the compound has an MIC value greater than 16 micrograms/ml)

SMILES: CCOC(=O)C1(CN(C2CCNCC2)S(=O)(=O)c2ccc(-c3cc4cn(-c5ccc(CNCCCNC(=N)N)cc5)c(=O)nc4[nH]3)cc2)CC1 [Compound 878]
- E. coli ATCC25922 MIC: + (a “+” indicates that the compound has an MIC value of 16 micrograms/ml or less)

SMILES: N=C(N)NCCCNCc1ccc(-n2cc3cc(-c4ccc(S(=O)(=O)N(Cc5cc(OC(F)(F)F)ccc5F)C5CCOCC5)cc4)[nH]c3nc2=O)cc1 [Compound 879]
- E. coli ATCC25922 MIC: + (a “+” indicates that the compound has an MIC value of 16 micrograms/ml or less)

SMILES: N=C(N)NCCCNCc1ccc(-n2cc3cc(-c4ccc(S(=O)(=O)N(CCOc5ccc(F)cc5)C5CCOCC5)cc4)[nH]c3nc2=O)cc1 [Compound 880]
- E. coli ATCC25922 MIC: − (a “−” indicates that the compound has an MIC value greater than 16 micrograms/ml)

SMILES: NCCCNCc1ccc(-n2cc3cc(CCS(=O)(=O)NC4CCNCC4)[nH]c3nc2=O)cc1 [Compound 881]
- MIC: < 16 µg/mL

SMILES: N=C(N)NCCCCCN1CCN(c2cn3cc(-c4ccc(Br)cc4)[nH]c3nc2=O)CC1 [Compound 882]
- MIC: > 16 µg/mL

SMILES: NCCCCCN1CCN(c2cn3cc(-c4ccc(Br)cc4)[nH]c3nc2=O)CC1 [Compound 883]
- MIC: > 16 µg/mL

SMILES: CN(C)Cc1cc2cn(-c3ccc(CNCCCN)cc3)c(=O)nc2[nH]1 [Compound 884]
- MIC: > 16 µg/mL

SMILES: N=C(N)NCCCCCc1ccc(-c2cn3cc(-c4ccc(Br)cc4)[nH]c3nc2=O)cc1 [Compound 885]
- MIC: > 16 µg/mL

SMILES: NCCCCCc1ccc(-c2cn3cc(-c4ccc(Br)cc4)[nH]c3nc2=O)cc1 [Compound 886]
- MIC: > 16 µg/mL

SMILES: N=C(N)NCCCCCn1cc2cc(-c3ccc(S(=O)(=O)NC4CCNCC4)cc3)[nH]c2nc1=O [Compound 887]
- MIC: > 16 µg/mL

SMILES: NCCCNC(=O)c1ccc(-n2cc3cc(-c4ccc(S(=O)(=O)NC5CCNCC5)cc4)[nH]c3nc2=O)cc1 [Compound 892]
- E. coli ATCC25922 MIC: + (a “+” indicates that the compound has an MIC value of 16 micrograms/ml or less)

SMILES: N=C(N)NCCCNC(=O)c1ccc(-n2cc3cc(-c4ccc(S(=O)(=O)NC5CCNCC5)cc4)[nH]c3nc2=O)cc1 [Compound 893]
- E. coli ATCC25922 MIC: + (a “+” indicates that the compound has an MIC value of 16 micrograms/ml or less)

SMILES: NCCCNCc1ccc(-n2cc3cc(-c4cc(C(=O)N(CCO)CCO)cc(N5CCNCC5)c4)[nH]c3nc2=O)cc1 [Compound 894]
- E. coli ATCC25922 MIC: − (a “−” indicates that the compound has an MIC value greater than 16 micrograms/ml)

SMILES: N=C(N)NCCCNCc1ccc(-n2cc3cc(-c4cc(C(=O)N(CCO)CCO)cc(N5CCNCC5)c4)[nH]c3nc2=O)cc1 [Compound 895]
- E. coli ATCC25922 MIC: + (a “+” indicates that the compound has an MIC value of 16 micrograms/ml or less)

SMILES: N=C(N)NCCCNCc1ccc(-n2cc3cc(-c4ccc(S(=O)(=O)N(CCCc5c[nH]nc5C(F)(F)F)C5CCNCC5)cc4)[nH]c3nc2=O)cc1 [Compound 897]
- E. coli ATCC25922 MIC: + (a “+” indicates that the compound has an MIC value of 16 micrograms/ml or less)

SMILES: N=C(N)NCCCNCc1ccc(-n2cc3cc(-c4ccc(S(=O)(=O)N(Cc5ccc(Cl)c(Cl)c5)C5CCOCC5)cc4)[nH]c3nc2=O)cc1 [Compound 898]
- E. coli ATCC25922 MIC: − (a “−” indicates that the compound has an MIC value greater than 16 micrograms/ml)

SMILES: CN1CCN(CCCN(C2CCNCC2)S(=O)(=O)c2ccc(-c3cc4cn(-c5ccc(CNCCCNC(=N)N)cc5)c(=O)nc4[nH]3)cc2)CC1 [Compound 899]
- E. coli ATCC25922 MIC: + (a “+” indicates that the compound has an MIC value of 16 micrograms/ml or less)

SMILES: NCCCCCN1CCN(c2cn3cc(-c4ccc(S(=O)(=O)N5CCNCC5)cc4)[nH]c3nc2=O)CC1 [Compound 900]
- MIC: > 16 µg/mL

SMILES: N=C(N)NCCCOCc1ccc(-c2cn3cc(-c4ccc(Br)cc4)[nH]c3nc2=O)cc1 [Compound 901]
- MIC: > 16 µg/mL

SMILES: NCCCOCc1ccc(-c2cn3cc(-c4ccc(Br)cc4)[nH]c3nc2=O)cc1 [Compound 902]
- MIC: > 16 µg/mL

SMILES: CN(Cc1ccccc1)Cc1cc2cn(-c3ccc(CNCCCN)cc3)c(=O)nc2[nH]1 [Compound 905]
- MIC: > 16 µg/mL

SMILES: CN(Cc1ccccc1)Cc1cc2cn(-c3ccc(CNCCCNC(=N)N)cc3)c(=O)nc2[nH]1 [Compound 906]
- MIC: > 16 µg/mL

SMILES: N=C(N)NCCCNCc1ccc(-n2cc3cc(-c4ccc(C[C@H](N)CO)cc4)[nH]c3nc2=O)cc1 [Compound 907]
- E. coli ATCC25922 MIC: + (a “+” indicates that the compound has an MIC value of 16 micrograms/ml or less)

SMILES: NCCCNCc1ccc(-n2cc3cc(-c4cc(C(=O)N5CCC(C(N)=O)CC5)cc(N5CCNCC5)c4)[nH]c3nc2=O)cc1 [Compound 910]
- E. coli ATCC25922 MIC: − (a “−” indicates that the compound has an MIC value greater than 16 micrograms/ml)

SMILES: N=C(N)NCCCNCc1ccc(-n2cc3cc(-c4cc(C(=O)N5CCC(C(N)=O)CC5)cc(N5CCNCC5)c4)[nH]c3nc2=O)cc1 [Compound 911]
- E. coli ATCC25922 MIC: − (a “−” indicates that the compound has an MIC value greater than 16 micrograms/ml)

SMILES: N=C(N)NCCCCCn1cc2cc(-c3ccc(S(=O)(=O)NC4CCNCC4)cc3)oc2nc1=O [Compound 912]
- MIC: > 16 µg/mL

SMILES: N=C(N)NCCCNCc1ccc(-n2cc3cc(CCS(=O)(=O)N(Cc4ccc(Cl)c(Cl)c4)C4CCNCC4)[nH]c3nc2=O)cc1 [Compound 913]
- E. coli ATCC25922 MIC: + (a “+” indicates that the compound has an MIC value of 16 micrograms/ml or less)

SMILES: NCCCNCc1ccc(-n2cc3cc(-c4cc(CN5CCS(=O)(=O)CC5)cc(N5CCNCC5)c4)[nH]c3nc2=O)cc1 [Compound 914]
- E. coli ATCC25922 MIC: − (a “−” indicates that the compound has an MIC value greater than 16 micrograms/ml)

SMILES: N=C(N)NCCCNCc1ccc(-n2cc3cc(-c4cc(CN5CCS(=O)(=O)CC5)cc(N5CCNCC5)c4)[nH]c3nc2=O)cc1 [Compound 915]
- E. coli ATCC25922 MIC: + (a “+” indicates that the compound has an MIC value of 16 micrograms/ml or less)

SMILES: NCCCNCc1ccc(-n2cc3cc(-c4ccc(C(NC5CCNCC5)C(F)(F)F)cc4)[nH]c3nc2=O)cc1 (centres unmarked) [Compound 918]
- E. coli ATCC25922 MIC: + (a “+” indicates that the compound has an MIC value of 16 micrograms/ml or less)
